Measurements reported in US9353081B2, “Bicyclic dihydroquinoline-2-one derivatives” (Hoffmann-La Roche Inc., priority 2011, dated 2016).

Key:
human CYP11B1 = human CYP11B1 (Homo sapiens (Human), UniProt P15538); assay: G-402 cellular enzyme assay, human CYP11B1 (cortisol release, HTRF); assay type: cell-based; conditions: G-402 cells expressing human CYP11B1; 1 μM Deoxycortisol
Text: (§1) Specifically we developed stable G-402 cells expressing ectopically human CYP11B1, human CYP11B2, human CYP11A1, cynomolgus CYP11B1 or cynomolgus CYP11B2 enzyme activity.
(§2) The expression plasmids contains the ORF for either human/cyno CYP11B1 or CYP11B2 under the control of a suitable promoter (CMV-promoter) and a suitable resistance marker (neomycin). Using standard techniques the expression plasmid is transfected into G-402 cells and these cells are then selected for expressing the given resistance markers. Individual cell-clones are then selected and assessed for displaying the desired enzymatic activity using 11-Deoxycorticosterone (Cyp11B2) or 11-Deoxycortisol (Cyp11B1) as a substrate.
(§3) For assaying enzymatic activity, cells were plated onto 96 well plates and incubated for 16 h. An aliquot of the supernatant is then transferred and analyzed for the concentration of the expected product (Aldosterone for CYP11B2; Cortisol for CYP11B1). The concentrations of these steroids can be determined using HTRF assays from CisBio analyzing either Aldosterone or Cortisol.
(§4) Inhibition of the release of produced steroids can be used as a measure of the respective enzyme inhibition by test compounds added during the cellular enzyme assay. The dose dependent inhibition of enzymatic activity by a compound is calculated by means of plotting added inhibitor concentrations x-axes) vs. measured steroid/product level (y-axes). The inhibition is then calculated by fitting the following 4-parameter sigmoidal function (Morgan-Mercer-Flodin (MMF) model) to the raw data points using the least squares method:
(§5) [formula] wherein, A is the maximum y value, B is the EC50 factor determined using XLFit, C is the minimum y value and D is the slope value.
(§6) EC50 values for compounds claimed herein were tested with the G402-based assay system described. Cyp11B2 enzyme activity was tested in presence of 1 μM Deoxycorticosterone and variable amounts of inhibitors; Cyp11B1 enzyme activity was tested in presence of 1 μM Deoxycortisol and variable amounts of inhibitors.

human CYP11B2 = human CYP11B2 (Homo sapiens (Human), UniProt P19099); assay: G-402 cellular enzyme assay, human CYP11B2 (aldosterone release, HTRF); assay type: cell-based; conditions: G-402 cells expressing human CYP11B2; 1 μM Deoxycorticosterone
Text: as §1, §2, §3, §4, §5, §6

human CYP11B2, sequence (P19099 25-503): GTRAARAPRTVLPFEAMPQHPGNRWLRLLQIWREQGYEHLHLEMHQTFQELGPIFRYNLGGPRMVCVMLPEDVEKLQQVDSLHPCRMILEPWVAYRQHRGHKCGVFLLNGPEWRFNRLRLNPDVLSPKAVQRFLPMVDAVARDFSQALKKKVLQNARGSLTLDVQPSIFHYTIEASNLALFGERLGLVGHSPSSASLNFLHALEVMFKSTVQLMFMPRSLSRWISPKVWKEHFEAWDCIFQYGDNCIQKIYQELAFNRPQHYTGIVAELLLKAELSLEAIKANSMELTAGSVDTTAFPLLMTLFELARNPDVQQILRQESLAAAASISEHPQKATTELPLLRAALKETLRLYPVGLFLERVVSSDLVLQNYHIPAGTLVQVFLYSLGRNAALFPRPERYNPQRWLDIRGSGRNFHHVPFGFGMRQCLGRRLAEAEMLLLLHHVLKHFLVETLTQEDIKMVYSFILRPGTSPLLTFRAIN
human CYP11B1, sequence (P15538 25-503): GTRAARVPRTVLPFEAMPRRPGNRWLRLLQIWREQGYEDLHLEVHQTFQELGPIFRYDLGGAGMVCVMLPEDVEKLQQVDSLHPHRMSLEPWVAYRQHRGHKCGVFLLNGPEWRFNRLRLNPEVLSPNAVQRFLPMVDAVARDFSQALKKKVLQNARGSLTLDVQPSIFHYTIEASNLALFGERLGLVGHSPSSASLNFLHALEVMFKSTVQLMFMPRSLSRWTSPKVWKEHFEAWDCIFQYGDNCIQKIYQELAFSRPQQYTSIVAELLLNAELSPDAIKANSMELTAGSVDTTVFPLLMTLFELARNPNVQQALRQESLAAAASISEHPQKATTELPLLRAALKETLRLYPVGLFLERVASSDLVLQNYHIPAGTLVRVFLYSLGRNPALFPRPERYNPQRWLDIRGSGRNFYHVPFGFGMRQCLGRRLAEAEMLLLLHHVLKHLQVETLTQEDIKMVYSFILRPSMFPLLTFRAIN

Compound	EC50 (human CYP11B1) [nM]	EC50 (human CYP11B2) [nM]
CN1C(=O)CCc2cc(-c3cncc4c3CCCC4O)ccc21 (racemic) [Example 67, (rac)-6-(8-Hydroxy-5,6,7,8-tetrahydro-isoquinolin-4-yl)-1-methyl-3,4-dihydroquinolin-2(1H)-one]	206	4.7
CCC(=O)N[C@@H]1c2cncc(-c3ccc4c(c3)CCC(=O)N4C)c2CC[C@@H]1F (single isomer, unassigned) [Example 51, (−)-N-[(7S,8R or 7R,8S)-7-Fluoro-4-(1-methyl-2-oxo-1,2,3,4-tetrahydro-quinolin-6-yl)-5,6,7,8-tetrahydro-isoquinolin-8-yl]-propionamide]	32300	1470
CCC(=O)N[C@H]1c2cncc(-c3ccc4c(c3)CCC(=O)N4C)c2CC[C@H]1F (single isomer, unassigned) [Example 53, (+)-N-[(7R,8S or 7S,8R)-7-Fluoro-4-(1-methyl-2-oxo-1,2,3,4-tetrahydro-quinolin-6-yl)-5,6,7,8-tetrahydro-isoquinolin-8-yl]-propionamide]	3570	122
CCC(=O)N[C@H]1c2cncc(-c3cc4c(cc3F)N(C)C(=O)CC4)c2CC[C@H]1C (single isomer, unassigned) [Example 48, (+)-N-[(7R,8R or 7S,8S)-4-(7-Fluoro-1-methyl-2-oxo-1,2,3,4-tetrahydro-quinolin-6-yl)-7-methyl-5,6,7,8-tetrahydro-isoquinolin-8-yl]-propionamide]	2880	26.1
CCC(=O)NC1CCCc2c(-c3cc(Cl)c4c(c3)CCC(=O)N4C)cncc21 (racemic) [Example 33, (rac)-N-[4-(8-Chloro-1-methyl-2-oxo-1,2,3,4-tetrahydro-quinolin-6-yl)-5,6,7,8-tetrahydro-isoquinolin-8-yl]-propionamide]	11600	79.8
CN1C(=O)CCc2cc(-c3cncc4c3CCC[C@H]4NC(=O)C3CC3)ccc21 [Example 64, Cyclopropanecarboxylic acid [(R)-4-(1-methyl-2-oxo-1,2,3,4-tetrahydro-quinolin-6-yl)-5,6,7,8-tetrahydro-isoquinolin-8-yl]-amide]	2360	46.2
CCC(=O)N[C@H]1c2cncc(-c3ccc4c(c3)CCC(=O)N4C)c2CC[C@@H]1F (single isomer, unassigned) [Example 52, (+)-N-[(7S,8S or 7R,8R)-7-Fluoro-4-(1-methyl-2-oxo-1,2,3,4-tetrahydro-quinolin-6-yl)-5,6,7,8-tetrahydro-isoquinolin-8-yl]-propionamide]	1590	25.8
CCC(=O)NC1CCCc2c(-c3cc4c(cc3F)N(C)C(=O)CC4)cncc21 (single isomer, unassigned; (+)) [Example 30, (+)-(R or S)—N-[4-(7-fluoro-1-methyl-2-oxo-1,2,3,4-tetrahydro-quinolin-6-yl)-5,6,7,8-tetrahydro-isoquinolin-8-yl]-propionamide]	3680	30
CCC(=O)NC1CCc2c(-c3cc4c(cc3F)N(C)C(=O)CC4)cncc21 (racemic) [Example 22, (rac)-N-(4-(7-Fluoro-1-methyl-2-oxo-1,2,3,4-tetrahydroquinolin-6-yl)-6,7-dihydro-5H-cyclopenta[c]pyridin-7-yl)propionamide]	1200	10.2
CCC(=O)N[C@@H]1c2cncc(-c3ccc4c(c3)CCC(=O)N4C)c2CC[C@@H]1C (single isomer, unassigned) [Example 46, (−)-N-[(7S,8S or 7R,8R)-7-Methyl-4-(1-methyl-2-oxo-1,2,3,4-tetrahydro-quinolin-6-yl)-5,6,7,8-tetrahydro-isoquinolin-8-yl]-propionamide]	19300	467
CCC(=O)NC1CCCc2c(-c3cc4c(cc3F)N(C)C(=O)CC4)cncc21 (single isomer, unassigned; (-)) [Example 29, (−)-(S or R)—N-[4-(7-Fluoro-1-methyl-2-oxo-1,2,3,4-tetrahydro-quinolin-6-yl)-5,6,7,8-tetrahydro-isoquinolin-8-yl]-propionamide]	42600	1790
CCC(=O)N[C@@H]1c2cncc(-c3cc4c(cc3F)N(C)C(=O)CC4)c2CC[C@@H]1C (single isomer, unassigned) [Example 43, (−)-N-[(7S,8S or 7R,8R)-4-(7-Fluoro-1-methyl-2-oxo-1,2,3,4-tetrahydro-quinolin-6-yl)-7-methyl-5,6,7,8-tetrahydro-isoquinolin-8-yl]-propionamide]	32000	452
CCS(=O)(=O)NC1CCCc2c(-c3cc(F)c4c(c3)CCC(=O)N4C)cncc21 (racemic) [Example 36, (rac)-Ethanesulfonic acid [4-(8-fluoro-1-methyl-2-oxo-1,2,3,4-tetrahydro-quinolin-6-yl)-5,6,7,8-tetrahydro-isoquinolin-8-yl]-amide]	20700	239
CN1C(=O)CCc2cc(-c3cncc4c3CCC[C@H]4NS(=O)(=O)C3CC3)ccc21 [Example 66, Cyclopropanesulfonic acid [(R)-4-(1-methyl-2-oxo-1,2,3,4-tetrahydro-quinolin-6-yl)-5,6,7,8-tetrahydro-isoquinolin-8-yl]-amide]	319	35.5
CCC(=O)N[C@@H]1CCCc2c(-c3ccc4c(c3)CCC(=O)N4C)cncc21 [Example 3-1, (+)-(R)—N-(4-(1-Methyl-2-oxo-1,2,3,4-tetrahydroquinolin-6-yl)-5,6,7,8-tetrahydroisoquinolin-8-yl)propionamide]	980	14
CCS(=O)(=O)NC1CCCc2c(-c3cc(Cl)c4c(c3)CCC(=O)N4C)cncc21 (racemic) [Example 37, (rac)-Ethanesulfonic acid [4-(8-chloro-1-methyl-2-oxo-1,2,3,4-tetrahydro-quinolin-6-yl)-5,6,7,8-tetrahydro-isoquinolin-8-yl]-amide]	13500	199
CCC(=O)NC1CCCc2c(-c3ccc4c(c3)CCC(=O)N4C)cncc21 (racemic) [Example 1, (rac)-N-(4-(1-Methyl-2-oxo-1,2,3,4-tetrahydroquinolin-6-yl)-5,6,7,8-tetrahydroisoquinolin-8-yl)propionamide]	2370	30
CCC(=O)NCCN1CCCc2c(-c3ccc4c(c3)CCC(=O)N4C)cncc21 [Example 13, N-{2-[5-(1-Methyl-2-oxo-1,2,3,4-tetrahydro-quinolin-6-yl)-3,4-dihydro-2H-[1,7]naphthyridin-1-yl]-ethyl}-propionamide]	1810	14
CCC(=O)NC1CCc2c(-c3ccc4c(c3)CCC(=O)N4C)cncc21 (single isomer, unassigned; (+)) [Example 9, (+)-(S or R)—N-(4-(1-Methyl-2-oxo-1,2,3,4-tetrahydroquinolin-6-yl)-6,7-dihydro-5H-cyclopenta[c]pyridin-7-yl)propionamide]	570	13
CCS(=O)(=O)NCCN1CCCc2c(-c3ccc4c(c3)CCC(=O)N4C)cncc21 [Example 14, N-(2-(5-(1-Methyl-2-oxo-1,2,3,4-tetrahydroquinolin-6-yl)-3,4-dihydro-1,7-naphthyridin-1(2H)-yl)ethyl)ethanesulfonamide]	210	11
CCC(=O)NC1CCCc2c(-c3cc(Cl)c4c(c3)CCC(=O)N4C)cncc21 (single isomer, unassigned; (+)) [Example 41, (+)-N—[(R or S)-4-(8-Chloro-1-methyl-2-oxo-1,2,3,4-tetrahydro-quinolin-6-yl)-5,6,7,8-tetrahydro-isoquinolin-8-yl]-propionamide]	3530	16.6
CCS(=O)(=O)NC1CCCc2c(-c3ccc4c(c3)CCC(=O)N4C)cncc21 (racemic) [Example 4, (rac)-N-(4-(1-Methyl-2-oxo-1,2,3,4-tetrahydroquinolin-6-yl)-5,6,7,8-tetrahydroisoquinolin-8-yl)ethanesulfonamide]	4920	97
CCS(=O)(=O)NC1CCc2c(-c3cc4c(cc3F)N(C)C(=O)CC4)cncc21 (single isomer, unassigned; (+)) [Example 27, (+)-(R or S)—N-(4-(7-Fluoro-1-methyl-2-oxo-1,2,3,4-tetrahydroquinolin-6-yl)-6,7-dihydro-5H-cyclopenta[c]pyridin-7-yl)ethanesulfonamide]	1890	11.2
CN1C(=O)CCc2cc(-c3cncc4c3CCC[C@H]4NC(=O)c3ncccc3Cl)ccc21 [Example 62, 3-Chloro-pyridine-2-carboxylic acid [(R)-4-(1-methyl-2-oxo-1,2,3,4-tetrahydro-quinolin-6-yl)-5,6,7,8-tetrahydro-isoquinolin-8-yl]-amide]	558	5.3
